According to patent publication US8148431B2, “Osteogenesis promoter containing β-cryptoxanthin as the active ingredient” (Kemin Health, L.C., priority 2002, dated 2012):
Marks after values point to notes of the source that are not given here.

What was measured:
Format in all cases: cell-based, Wistar male rats
[1] = test system: metaphysis tissue of the femur (cancellous bone); test: Bone alkaline phosphatase activity in cultured femoral metaphysis tissue pieces; settings: Table 2 (protein synthesis inhibitor experiment), metaphysis tissue, 10^−6 M (each agent), mean ± SE, n=6
Protocol: (§1) The femurs were extracted from rats (Wistar male rats; 4 to 5 weeks old) (purchased from Japan SLC Co., Ltd. and fed with solid Oriental yeast (MF)) under anesthesia with ether under a germfree condition. The femurs were each washed with 0.25 M sucrose solution, and then divided into the diaphysis (cortical bone) and metaphysis (cancellous bone). The bone tissue pieces were cultured in a culture medium (Dulbecco's modified culture medium containing 5% of glucose; serum-free medium) containing. β-cryptoxanthin, etc. at […] in an incubator filled with 5% CO2-95% air for 48 hours. β-cryptoxanthin used was “β-cryptoxanthin” of Extrasynthase Co., cycloheximide used was “Cycloheximide” of Sigma Co. Ltd., β-carotene was “β-carotene” of Sigma ? , xanthine was “Xanthine” of Sigma Co, Ltd., parathormone was “Parathormone” of Sigma Co. Ltd. and prostaglandin E2 was “Prostaglandin E2” of Sigma Co. Ltd. In the control, only the culture medium was used without β-cryptoxanthin or the like.
(§2) The expression level of alkaline phosphatase, which is the most important enzyme for the acceleration of the calcification of bones, was examined. The tissue pieces cultured in the incubator were washed in 0.25 M sucrose solution, then pulverized in 3 ml of 65 mM barbital buffer (pH 7-4) and treated with ultrasonic waves. The resultant liquid was centrifuged. The supernatant, as the enzyme solution, was determined by a method of Walter ad Schutt in Method of Enzymatic Analysis, Vol. 1-2, p. 856, Academic Press, New York, 1965). Namely, this method was carried out as follows: p-nitrophenylphosphoric acid was used as the substrate. 0.05 ml of the enzyme solution was added to 2 ml of diethanolamine buffer (pH 9.8). After the incubation at 37° C. for 30 minutes, 10 ml of 0.05 N NaOH was added to the mixture. The absorbance (405 nm) was determined with a spectrophotometer to determine bone alkaline phosphatase activity of a bone remedy or a compound known to be effective for the bones.
(§3) The bone component-increasing effect of β-cryptoxanthin was examined. The diaphysis and metaphysis tissue of the femur was cultured in the above-described culture medium containing β-cryptoxanthin (10^−5 to 10^−5 M) for 48 hours. Calcium level in the bone tissue, alkaline phosphatase activity (enzyme for accelerating the bone calcification) and the amount of deoxyribonucleic acid (DNA; index of number of cells in the bone tissue) were determined by the same methods as in Example 1. In each test group, the determination vas conducted 6 to 8 times and the results were represented by the average value and the standard error. The significant difference was determined by Student's t-test. The result was compared with that of the control. When P value was not higher than 0.01 (**) or not higher than 0.05 (*), the results were statistically significant.

[2] = test system: diaphysis tissue of the femur (cortical bone); test: Bone DNA level in cultured femoral diaphysis tissue pieces; settings: Table 2 (protein synthesis inhibitor experiment), diaphysis tissue, 10^−6 M (each agent), mean ± SE, n=6
Protocol: as §1
(§4) DNA level was determined as an index of the number of cells in the bone tissue. After the culture in an incubator, the tissue pieces were washed with 0.25 M sucrose solution and then the wet weight of them was determined. They were pulverized in 4 ml of 0.1 N NaOH. After the osmosis at 4° C. for 24 hours, the liquid mixture was centrifuged. The supernatant was taken as the sample and determined by a method of Ceriotti et al. (J. Biol. Chem., 241; 34-77, 1951). Namely, 1 ml of concentrated hydrochloric acid and 1 ml of 0.04% indole solution were added to 2 ml of the sample and then the resultant mixture was heated to 100° C. in boiling water. After quenching followed by the extraction with 4 ml of chloroform, the chloroform layer was taken to determine bone DNA level with a spectrophotometer (490 nm).
as §3

[3] = test system: diaphysis tissue of the femur (cortical bone); test: Bone calcium level in cultured femoral diaphysis tissue pieces; settings: diaphysis tissue; for Bone calcium level: mean ± SE; for Significant effect on increasing calcium level in the bone tissue (in words): Table 3 concentrations
Protocol: as §1
(§5) Bone calcium level in the bone tissue was determined. After the culture in the incubator, the tissue pieces were washed with 0.25 M sucrose solution and dried and then the bone was weighed. Then concentrated nitric acid was added to the tissue pieces. After the incineration at 120° C. for 12 hours, the bone calcium level was determined with an atomic absorption photometer (“Perkin-Elmer 303” of Perkin-Elmer Co.).
as §3

[4] = test system: metaphysis tissue of the femur (cancellous bone); test: Bone calcium level in cultured femoral metaphysis tissue pieces; settings: metaphysis tissue; for Bone calcium level: mean ± SE; for Significant effect on increasing calcium level in the bone tissue (in words): Table 3 concentrations
Protocol: as §1, §5
as §3, with “The diaphysis and metaphysis tissue of the femur was cultured in the above-described culture medium containing β-cryptoxanthin (10^−5 to 10^−5 M) for 48 hours.” left out

[5] = test system: metaphysis tissue of the femur (cancellous bone); test: Bone DNA level in cultured femoral metaphysis tissue pieces; settings: Table 2 (protein synthesis inhibitor experiment), metaphysis tissue, 10^−6 M (each agent), mean ± SE, n=6
Protocol: as §1, §4, §3

[6] = test system: diaphysis tissue of the femur (cortical bone); test: Bone alkaline phosphatase activity in cultured femoral diaphysis tissue pieces; settings: Table 2 (protein synthesis inhibitor experiment), diaphysis tissue, 10^−6 M (each agent), mean ± SE, n=6
Protocol: as §1, §2, §3

[7] = test system: metaphysis tissue of the femur; test: Bone resorption (PTH or prostaglandin E2): bone calcium level in cultured metaphysis tissue
Protocol: as §1, §5
(§6) The bone mineral dissolution-inhibiting effect of β-cryptoxanthin was examined. […] PTH also has a pathophysiologic role on the expression of osteoporosis caused by the aging. It is known that prostaglandin E2 also causes physiologic bone mineral dissolution. The diaphysis or metaphysis tissue of the femur was cultured in the presence of 10^−7 M PTH or 10^−5 M prostaglandin E2 for 48 hours and then calcium level in the bone tissue was determined. In another experiment, the culture was conducted in the same manner as that described above in the coexistence of them and β-cryptoxanthin (10^−8 M to 10^−6 M) and then calcium level in the bone tissue was determined. In each test group, the determination was conducted 6 to 8 times and the results were represented by the average value and the standard error. The significant difference was determined by Student's t-test. The result was compared with that of the control. When P value was not higher than 0.01 (*) as compared with the control or it is not higher than 0.1 (#) as compared with that of prostaglandin E2, the results were statistically significant.

[8] = test system: diaphysis tissue of the femur; test: Bone resorption (PTH or prostaglandin E2): bone calcium level in cultured diaphysis tissue
Protocol: as §1, §5, §6

[9] = Table 2 (protein synthesis inhibitor experiment), 10^−6 M (each agent), n=6
[10] = Comparative Example (Table 3), 10^−6 M, 48 h culture
[11] = Comparative Example (Table 3), 10^−7 M, 48 h culture
[12] = 10^−7 M PTH, 48 h culture, vs control

`C[C@@H]1C[C@@H]([C@H](O)CC2CC(=O)NC(=O)C2)C(=O)[C@@H](C)C1` [Cycloheximide, reference compound] was tested, and the “Bone alkaline phosphatase activity” value [1] was 948.8 ± 21.1 nmol/min/mg protein, the “Bone DNA level” value [2] was 1.299 ± 0.127 mg/g bone wet weight and the Bone calcium level [3, 9] was 204.0 ± 15.59 mg/g dry weight. The Bone calcium level [4, 9] was 156.4 ± 2.81 mg/g dry weight, the “Bone DNA level” value [5] was 3.001 ± 0.454 mg/g bone wet weight and the “Bone alkaline phosphatase activity” value [6] was 534.5 ± 64.2 nmol/min/mg protein.

`CCCCC[C@H](O)/C=C/[C@H]1[C@H](O)CC(=O)[C@@H]1C/C=C\CCCC(=O)O` [Prostaglandin E2, reference compound] was tested, and the “Effect of prostaglandin E2 on calcium level in the bone tissue (in words)” value ([7]; metaphysis tissue, prostaglandin E2 10^−5 M) was “significant reduction”, the Bone calcium level ([7]; metaphysis tissue, prostaglandin E2 10^−6 M alone, 48 h culture) was 163.5 ± 1.47* mg/g dry weight and the “Effect of prostaglandin E2 on calcium level in the bone tissue (in words)” value ([8]; diaphysis tissue, prostaglandin E2 10^−5 M) was “significant reduction”. The Bone calcium level ([8]; diaphysis tissue, prostaglandin E2 10^−5 M alone, 48 h culture) was 182.8 ± 4.06* mg/g dry weight.

In the case of `Oc1nc(O)c2[nH]cnc2n1` [Xanthine, 2,6-dihydroxypurine, reference compound], the Bone calcium level [3, 10] is reported as 240.2 ± 8.46 mg/g dry weight, the Bone calcium level [3, 11] is reported as 228.6 ± 7.08 mg/g dry weight and the “Significant effect on increasing calcium level in the bone tissue (in words)” value ([3]; 48 h culture) is reported as “could not be obtained”. The Bone calcium level [4, 10] was 188.2 ± 3.34 mg/g dry weight, the Bone calcium level [4, 11] was 189.8 ± 3.30 mg/g dry weight and the “Significant effect on increasing calcium level in the bone tissue (in words)” value ([4]; 48 h culture) was “could not be obtained”.

`CC1=C(/C=C/C(C)=C/C=C/C(C)=C/C=C/C=C(C)/C=C/C=C(C)/C=C/C2=C(C)CCCC2(C)C)C(C)(C)CCC1` [β-carotene, reference compound] was tested, and the Bone calcium level [3, 10] was 215.6 ± 2.78 mg/g dry weight, the Bone calcium level [3, 11] was 232.2 ± 6.66 mg/g dry weight and the “Significant effect on increasing calcium level in the bone tissue (in words)” value ([3]; 48 h culture) was “could not be obtained”. For the same molecule, the Bone calcium level [4, 10] was 189.4 ± 8.06 mg/g dry weight, the Bone calcium level [4, 11] was 195.4 ± 10.10 mg/g dry weight and the “Significant effect on increasing calcium level in the bone tissue (in words)” value ([4]; 48 h culture) was “could not be obtained”.

B1: Parathyroid hormone: peptide hormone secreted from the accessory thyroid, causes bone mineral dissolution (bone resorption); “Parathormone” of Sigma (peptide, UniProt P01270 32-115, looked up)
Parathyroid hormone: SVSEIQLMHNLGKHLNSMERVEWLRKKLQDVHNFVALGAPLAPRDAGSQRPRKKEDNVLVESHEKSLGEADKADVNVLTKAKSQ
modifications: Parathyroid hormone
notes: peptide hormone secreted from the accessory thyroid, causes bone mineral dissolution (bone resorption); “Parathormone” of Sigma
For B1, the “Effect of PTH on calcium level in the metaphysis tissue (in words)” value [7, 12] was “significantly reduced”, the Bone calcium level ([7]; metaphysis tissue, parathyroid hormone 10^−7 M alone, 48 h culture) was 167.0 ± 0.96* mg/g dry weight and the “Effect of PTH on calcium level in the diaphysis tissue (in words)” value [8, 12] was “significantly reduced”. The Bone calcium level ([8]; diaphysis tissue, parathyroid hormone 10^−7 M alone, 48 h culture) was 180.0 ± 3.23* mg/g dry weight.
